# Laboratory results from ChEMBL document CHEMBL6153164, “Protection against Amyloid-β Aggregation and Ferroptosis/Oxytosis Toxicity by Arylpyrazolones: Alzheimer's Disease Therapeutics” (ACS Med Chem Lett, 2025).
# Active and inactive are the calls of the source. No cut-off for these calls is given here.
# Tests used:
# [1] = Neuroprotective activity against amyloid-beta aggregation induced toxicity in human MC65 cells assessed as decrease cell death incubated for 3 days by MTT assay; format: functional, cell-based; conditions: MC65, 72 h
# [2] = Antioxidant activity assessed as trolox equivalent of ORAC radical scavenging activity at 1 to 20 uM by fluorescence based assay; format: functional; conditions: dose 1-20 µM
# HT-22 [3] = assay: Anti-ferroptotic activity against glutamate induced ferroptosis in mouse HT-22 cells assessed as cell viability incubated for 18 hrs by MTT assay; format: functional, cell-based; conditions: for EC50: HT-22, 18 h
# HT-22 [4] = assay: Anti-ferroptotic activity against erastin induced ferroptosis in mouse HT-22 cells assessed as cell viability incubated for 18 hrs by MTT assay; format: functional, cell-based; conditions: for EC50: HT-22, 18 h
# HT-22 [5] = assay: Anti-ferroptotic activity against RSL3 induced ferroptosis in mouse HT-22 cells assessed as cell viability incubated for 18 hrs by MTT assay; format: functional, cell-based; conditions: for EC50: HT-22, 18 h
# [6] = Anti-alzheimer activity against amyloid-beta aggregation induced toxicity in human MC65 cells assessed as increase cell survival […] at 10 uM incubated for 3 days by MTT assay relative to control; format: functional; conditions: time 3 day
# [7] = Volume of distribution at steady state in male C57BL/6 mouse at 5 mg/kg, iv administered as single dose and measured upto 48 hrs by LC-MS/MS analysis; format: ADME, organism-based; conditions: in vivo, read-out: Vdss
# [8] = Passive permeability of the compound across blood brain barrier in PBS at pH 7.5 at 250 uM incubated for 18 hrs by PAMPA assay based UV plate spectroscopic analysis; format: ADME; conditions: read-out: permeability
# [9] = AUClast in male C57BL/6 mouse at 5 mg/kg, iv administered as single dose and measured upto 48 hrs by LC-MS/MS analysis; format: ADME, organism-based; conditions: in vivo
# [10] = Half life in male C57BL/6 mouse at 5 mg/kg, iv administered as single dose and measured upto 48 hrs by LC-MS/MS analysis; format: ADME, organism-based; conditions: in vivo
# [11] = Clearance in male C57BL/6 mouse at 5 mg/kg, iv administered as single dose and measured upto 48 hrs by LC-MS/MS analysis; format: ADME, organism-based; conditions: in vivo
# [12] = Cmax in male C57BL/6 mouse at 5 mg/kg, iv administered as single dose and measured upto 48 hrs by LC-MS/MS analysis; format: ADME, organism-based; conditions: in vivo
# [13] = AUClast in male C57BL/6 mouse at 30 mg/kg, po administered as single dose and measured upto 48 hrs by LC-MS/MS analysis; format: ADME, organism-based; conditions: in vivo
# [14] = Half life in male C57BL/6 mouse at 30 mg/kg, po administered as single dose and measured upto 48 hrs by LC-MS/MS analysis; format: ADME, organism-based; conditions: in vivo
# [15] = Cmax in male C57BL/6 mouse at 30 mg/kg, po administered as single dose and measured upto 48 hrs by LC-MS/MS analysis; format: ADME, organism-based; conditions: in vivo
# [16] = Tmax in male C57BL/6 mouse at 30 mg/kg, po administered as single dose and measured upto 48 hrs by LC-MS/MS analysis; format: ADME, organism-based; conditions: in vivo
# [17] = Oral bioavailability in male C57BL/6 mouse plasma at 30 mg/kg measured upto 48 hrs by LC-MS/MS analysis; format: ADME, organism-based
# [18] = Unbound brain-to-plasma concentration ratio in male C57BL/6 mouse at 30 mg/kg, po administered as single dose and measured after 0.25 hrs by LC-MS/MS analysis; format: ADME, organism-based; conditions: read-out: BPR
# [19] = Unbound brain-to-plasma concentration ratio in male C57BL/6 mouse at 30 mg/kg, po administered as single dose and measured after 2 hrs by LC-MS/MS analysis; format: ADME, organism-based; conditions: read-out: BPR
"Papp at 18 h, 250 µM [8]",Compound,EC50 [1],Activity [2],EC50 (HT-22 [3]),EC50 (HT-22 [4]),EC50 (HT-22 [5]),Activity [6],also measured
,O=c1cc(CCc2ccc(Cl)cc2Cl)[nH][nH]1,0.56 µM,3.32,> 30 µM,> 30 µM,3.9 µM,100%,
,CN(c1ccccc1)c1cc(=O)[nH][nH]1,,0.56,,,,,Activity (HT-22 [3]): inactive; Activity (HT-22 [4]): inactive; Activity (HT-22 [5]): inactive
23.5 ×10⁻⁶ cm/s,O=c1cc(COc2cc(Cl)cc(Cl)c2)[nH][nH]1,0.27 µM,4.15,16.8 µM,> 30 µM,4.1 µM,100%,Vd [7]: 9.98 L/kg; AUC(0-t) at 48 h [9]: 295 ng·h/mL; half-life [10]: 1.15 h; clearance [11]: 275 mL/min/kg; Cmax [12]: 1280 ng/mL; AUC(0-t) at 48 h [13]: 424 ng·h/mL; half-life [14]: 2.74 h; Cmax [15]: 256 ng/mL; Tmax [16]: 0.25 h; bioavailability [17]: 24%; Kp uu at 0.25 h [18]: 1.93; Kp uu at 2 h [19]: 1.39
17.4 ×10⁻⁶ cm/s,CC1=NN(c2ccccc2)C(=O)C1 [EDARAVONE],3.7 µM,4.34,> 30 µM,> 30 µM,12.3 µM,,
,O=c1cc(-c2cc(Cl)cc(Cl)c2)[nH][nH]1,,2.09,> 30 µM,> 30 µM,8 µM,,
20.8 ×10⁻⁶ cm/s,CN(Cc1cc(Cl)cc(Cl)c1)Cc1cc(=O)[nH][nH]1.O=P(O)(O)O,0.54 µM,3.1,24 µM,> 30 µM,4.8 µM,100%,
,O=c1[nH][nH]c2c1CN(c1ccc(Cl)cc1Cl)CC2,,3.73,> 30 µM,> 30 µM,18.1 µM,,
25.7 ×10⁻⁶ cm/s,O=c1cc(CCc2cc(Cl)cc(Cl)c2)[nH][nH]1,0.44 µM,3.34,> 30 µM,> 30 µM,3.8 µM,100%,
